Like-named read-outs stand apart in the source and are kept apart here.
Experiments:
SOD1 [1] = assay: Western blot / native gel analysis of SOD1 aggregation; assay type: cell-based, human; conditions: Table 1; effect on SOD1 aggregation, native / non-SDS-PAGE gel
Method: Using RIPA buffer (50 mM Tris-Cl, pH 7.5, 150 mM NaCl, 1% NP-40, 0.1% SDS and […]) for SDS-PAGE and lysis buffer (50 mM Tris-Cl, pH 7.5, 150 mM NaCl, 0.3% NP-40) for Native-PAGE, proteins were extracted from cells. Samples were separated by the SDS-PAGE or the Native-PAGE and transferred to PVDF membrane. Blotted membrane was blocked with TBST buffer including 3% skim milk for 1 hour, and reacted with specific antibodies. The reacted antibodies were detected by ECL and X-ray film exposure. Antibodies used in the present disclosure are as follows: pan-SOD1 (GTX100554) was purchased from Genetex (California, USA). Misfolded SOD1-specific antibody (B8H10) was purchased from MediMabs (Montreal, Canada). Actin (sc-1616), GST (sc-138), and GFP (Green fluorescent protein; sc-8036) were purchased from Santa Cruz biotechnology (Santa Cruz, CA, USA). TDP-43 antibody (10782-2-AP) was purchased from Proteintech (Rosemont, IL, USA). Anti-FLAG (Sigma; F3165) was purchased from Sigma Aldrich (St, Louis, Mo, USA), and HRP-conjugated goat anti-mouse, goat anti-rabbit, and mouse anti-goat antibodies (Pierce, Thermo Fisher Scientific, Inc., Rockford, IL, USA) were used as secondary antibodies.
(§1) GFP-SOD1 (WT, G85R, G93A), non-tagged SOD1 (WT, A4V, G37R, G85R, G93A) and tdTomato-TDP43 expression vectors were purchased from Addgene (Cambridge, MA, USA). Transfection was performed using Jet-PEI reagent (JetPEI; Polyplus transfection, New York, NY, USA) according to the manufacturer's protocol. Briefly, vectors were mixed with JetPEI reagent in 150 mM NaCl buffer, and then mixture was reacted for 15 minutes. The mixture was added to cells in serum-free medium and reacted for 4 hours. After reaction, the cells were replaced with a culture medium supplemented with 10% FBS.

normal human fibroblasts = assay: Cell viability measurement (MTT), normal fibroblasts; assay type: cell-based; conditions: Table 1; cell type not given, neurons (FIG. 9A) and normal fibroblasts (FIG. 9B)
Method: HEK293 cells were purchased from American Type Culture Collection (ATCC, Manassas, VA, USA) and maintained at 37° C. and 5% CO2 in DMEM liquid medium including 10% fetal bovine serum and 1% penicillin-streptomycin. SK—N—SH cells were purchased from Korean Cell Line Bank (KCLB, Seoul, South Korea) and maintained in MEM medium including 10% fetal bovine serum, 1% antibiotic, 25 mM HEPES, and 300 mg/L L-Glu. Human fibroblasts (person) were purchased from Coriell Cell Repositories (New Jersey, USA) and maintained in EMEM including 15% FBS, 2 mM Glutamine, and 26 mM HEPES without antibiotics. Thapsigargin (ER calcium scavenger: CAS 67526-95-8) was purchased from Calbiochem (Darmstadt, Germany). CoCl2 (hypoxia-inducer: C8661) was purchased from Sigma Aldrich (St, Louis, Mo, USA).
To check cells viability, the cells were reacted with 0.5 mg/ml MTT solution (475989; Merck, Darmstadt, Germany) at 37° C. for 4 hours. After removing residual solution and washing with PBS, precipitate was dissolved in 200 μl DMSO, and quantified by measuring absorbance at 540 nm.

SOD1 [2] = assay: Immunofluorescence staining of SOD1 aggregation and misfolded SOD1; assay type: cell-based, human; conditions: Table 1; IF staining of SOD1
Method: Cells on coverslip were washed with PBS, fixed with 4% PFA at room temperature for 30 minutes, and then infiltrated with 0.1% Triton X-100/PBS for 10 minutes. The cells were treated with blocking solution (anti-Human Antibody 1:500 dilution in PBS) for 1 hour, and then cells were reacted with anti-pan SOD1 (1:400 dilution), misfolded SOD1 (B8H10; 1:200 dilution in blocking solution) at 4° C. overnight. Finally, the cells were reacted with FITC and rhodamine-conjugated secondary antibody at 4° C. for 6 hours. Nuclei were stained with 4,6-diamidino-2-phenylindole (DAPI), and endoplasmic reticula (ERs) were stained with ER-Tracker Red dye for 10 minutes. The cells were washed 3 times with PBS, and then coverslips were mounted with mounting solution [H-5501; Vector Laboratories (Burlingame, CA, USA)] and analyzed by fluorescence microscopy (Zeiss).
as §1

WT-SOD1 = WT-SOD1 aggregation by cellular stress; assay type: cell-based
[3] = tested on: WT-SOD1 and mutant SOD1-GST (A4V, G37R, G85R, G93A); assay: ELISA compound screening for binding inhibitor between WT-SOD1 and mutant SOD1; design: species or system human; conditions: Table 1; compounds at final concentration of 50 μM
Method: For compound screening, the present inventors applied an ELISA assay system. To select a binding inhibitor between WT-SOD1 and mutant SOD1, the present inventors used 0.5% paraformaldehyde (PFA) to fix WT-SOD1 recombinant protein on a 96-well plate. The plate was dried, washed with phosphate-buffered saline (PBS), and reacted with the compounds at a final concentration of 50 μM, and then mutant SOD1-GST (A4V, G37R, G85R, G93A) proteins were added. After 2 hours of reaction, the 96-well plate was washed with PBS and blocked with 3% skim milk to prevent non specific reaction. The plate was reacted with anti-GST antibody (diluted at 1:10,000) for 1 hour, and then reacted with anti-mouse IgG-HRP (diluted at 1:50,000) for 1 hour. After washing twice, the plate was reacted with a 3,3′,5,5′-tetramethylbenzidine (TMB) solution (Calbiochem) for 30 minutes and a stop solution (1N H2SO4) for 30 minutes. Finally, the present inventors analyzed values using an ELISA reader (450 nm absorbance). Negative control (−; red line) was reacted without mutant SOD1, and positive control (+; blue line) was reacted with mutant SOD1 without the compounds.
To prepare recombinant proteins, human SOD1 (WT, A4V, G37R, G85R, G93A) was added to EcoRI and HindIII sites of pGEX-TEV vector, an improved vector made by adding a TEV protease cleavage site to pGEX-4T1 (Invitrogen). The recombinant proteins were expressed as GST-fusion proteins in Escherichia coli (E. coli) strain BL21 (DE3). The proteins were purified by glutathione-affinity chromatography.

| Structure (SMILES) | Western Blot (SOD1 [1]) | Toxicity (MTT) (normal human fibroblasts) | Immuno-fluorscence (SOD1 [2]) | SOD1 aggregation under cellular stress agents (WT-SOD1) | ELISA [3] | SOD1 aggregation under cellular stress agents (WT-SOD1; FIG. 1C, 1D, FIG. 2) |
| --- | --- | --- | --- | --- | --- | --- |
| CC1(C)Oc2cc3oc(=O)ccc3cc2C[C@@H]1OC(=O)/C=C/c1ccc(F)c(F)c1 [SNU-C18, (S)-8,8-dimethyl-2-oxo-7,8-dihydro-2H,6H-pyrano[3,2-g]chromen-7-yl (E)-3-(3,4-difluorophenyl) acrylate] | Effect ○ | Toxic | Effect ○ | – | – | – |
| [Cl-].[Cl-].[Co+2] [CoCl2] | – | – | – | SOD1 aggregation and increase of misfolded SOD1 | – | – |
| COc1cc(CCC(=O)O[C@H]2Cc3cc4ccc(=O)oc4cc3OC2(C)C)ccc1O [SNU-C4, (S)-8,8-dimethyl-2-oxo-7,8-dihydro-2H,6H-pyrano[3,2-g]chromen-7-yl 3-(4-hydroxy-3-methoxyphenyl) propanoate] | Effect x | No | Effect x | – | Effect x | – |
| CC1(C)Oc2cc3oc(=O)ccc3cc2C[C@@H]1OC(=O)/C=C/c1ccncc1 [SNU-C9, (S)-8,8-dimethyl-2-oxo-7,8-dihydro-2H,6H-pyrano[3,2-g]chromen-7-yl (E)-3-(pyridin-4-yl) acrylate] | Effect ○ | No | Effect ○ | – | Effect x | – |
| C/C=C(/C)C(=O)O[C@H]1C(C)=C2[C@H]([C@@H]1OC(=O)CCCCCCC)[C@@](C)(OC(C)=O)C[C@H](OC(=O)CCC)[C@@]1(O)[C@H]2OC(=O)[C@@]1(C)O [Thapsigargin] | – | – | – | – | – | promoted the WT-SOD1 aggregation |
| CC(=O)Oc1cccc(/C=C/C(=O)O[C@H]2Cc3cc4ccc(=O)oc4cc3OC2(C)C)c1 [SNU-C14, (S)-8,8-dimethyl-2-oxo-7,8-dihydro-2H,6H-pyrano[3,2-g]chromen-7-yl (E)-3-(3-acetoxyphenyl) acrylate] | Effect ○ | No | Effect ○ | – | Effect ○ | – |
| c1ccc(CN(CCN(Cc2ccccn2)Cc2ccccn2)Cc2ccccn2)nc1 [TPEN] | – | – | – | – | – | induced the WT-SOD1 aggregation |
| CC1(C)Oc2cc3oc(=O)ccc3cc2C[C@@H]1OC(=O)/C=C/c1cccc(O)c1 [SNU-C10, (S)-8,8-dimethyl-2-oxo-7,8-dihydro-2H,6H-pyrano[3,2-g]chromen-7-yl (E)-3-(3-hydroxyphenyl) acrylate] | Effect ○ | No | Effect ○ | – | Effect ○ | – |
| COc1ccc(CCC(=O)O[C@H]2Cc3cc4ccc(=O)oc4cc3OC2(C)C)cc1OC [SNU-C7, (S)-8,8-dimethyl-2-oxo-7,8-dihydro-2H,6H-pyrano[3,2-g]chromen-7-yl 3-(3,4-dimethoxyphenyl) propanoate] | Effect x | No | Effect x | – | Effect x | – |
| C[N+](C)(C)CCO.C[N+](C)(C)CCO.[SH-].[SH-].[S]=[Mo]=[S] [ATN-224] | – | – | – | – | – | induced the WT-SOD1 aggregation |
| COc1cc(/C=C/C(=O)O[C@H]2Cc3cc4ccc(=O)oc4cc3OC2(C)C)ccc1OC(C)=O [SNU-C17, (S)-8,8-dimethyl-2-oxo-7,8-dihydro-2H,6H-pyrano[3,2-g]chromen-7-yl (E)-3-(4-acetoxy-3-methoxyphenyl) acrylate] | Effect ○ | – | Effect ○ | – | – | – |
| COc1ccc(/C=C/C(=O)O[C@H]2Cc3cc4ccc(=O)oc4cc3OC2(C)C)cc1OC [SNU-C5, (S)-8,8-dimethyl-2-oxo-7,8-dihydro-2H,6H-pyrano[3,2-g]chromen-7-yl (E)-3-(3,4-dimethoxyphenyl) acrylate] | Effect x | No | Effect x | – | Effect ○ | – |
| COc1cc(CCC(=O)O[C@H]2Cc3cc4ccc(=O)oc4cc3OC2(C)C)ccc1OC(C)=O [SNU-C15, (S)-8,8-dimethyl-2-oxo-7,8-dihydro-2H,6H-pyrano[3,2-g]chromen-7-yl 3-(4-acetoxy-3-methoxyphenyl) propanoate] | Effect ○ | No | Effect ○ | – | Effect x | – |
| CC1(C)Oc2cc3oc(=O)ccc3cc2C[C@@H]1OC/C=C/c1ccc(F)cc1 [SNU-C13, (S,E)-7-((3-(4-fluorophenyl)allyl)oxy)-8,8-dimethyl-7,8-dihydro-2H,6H-pyrano[3,2-g]chromen-2-one] | Effect x | – | – | – | – | – |

Reference: US12448393B2, “Use of novel compound, for preventing, improving or treating amyotrophic lateral sclerosis” (PRG S&TECH INC., priority 2019, dated 2025)
